According to the supplement of paper PMC10307832:

Key:
Assay in all cases: relative viability (nuclei count vs DMSO), 5 days (fraction); higher = more cells survive
Carboplatin + Alpelisib = compound: C1CC(C1)(C(=O)O)C(=O)O.[NH2-].[NH2-].[Pt+2] [Carboplatin] + Cc1nc(NC(=O)N2CCC[C@H]2C(N)=O)sc1-c1ccnc(C(C)(C)C(F)(F)F)c1 [Alpelisib] (partner 2 µM)
Procedure, shortened: (§1)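 Lung cancer cell lines, seeded in 1536-well plates, were treated the following day by pin tool with a single drug or with five library-drug doses (not always all listed) in √10 steps on top of a fixed anchor-drug dose. Cells were fixed and nuclei stained in one step after 5 days, and nuclei were counted. Relative viability is the nuclei count for treated wells divided by that for vehicle wells, reported as medians of duplicate plates.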

GSK126 + Tozasertib = compound: CC[C@H](C)N1C=C(C2=C(C=C(C=C21)C3=CN=C(C=C3)N4CCNCC4)C(=O)NCC5=C(C=C(NC5=O)C)C)C [GSK126] + Cc1cc(Nc2cc(N3CCN(C)CC3)nc(Sc3ccc(NC(=O)C4CC4)cc3)n2)n[nH]1 [Tozasertib] (partner 0.1 µM)
Procedure, shortened: as §1

MLN4924 + Navitoclax = compound: NS(=O)(=O)OC[C@@H]1C[C@@H](n2ccc3c(N[C@H]4CCc5ccccc54)ncnc32)C[C@@H]1O [MLN4924] + CC1(C)CCC(c2ccc(Cl)cc2)=C(CN2CCN(c3ccc(C(=O)NS(=O)(=O)c4ccc(N[C@H](CCN5CCOCC5)CSc5ccccc5)c(S(=O)(=O)C(F)(F)F)c4)cc3)CC2)C1 [Navitoclax] (partner 0.5 µM)
Procedure, shortened: as §1

MLN4924 + AZD7762 = compound: NS(=O)(=O)OC[C@@H]1C[C@@H](n2ccc3c(N[C@H]4CCc5ccccc54)ncnc32)C[C@@H]1O [MLN4924] + NC(=O)Nc1cc(-c2cccc(F)c2)sc1C(=O)N[C@H]1CCCNC1 [AZD7762] (partner 0.2 µM)
Procedure, shortened: as §1

| Cell Line | relative viability (Carboplatin + Alpelisib; first compound 0.08 µM) | relative viability (Carboplatin + Alpelisib; first compound 0.253 µM) | relative viability (Carboplatin + Alpelisib; first compound 0.8 µM) | relative viability (Carboplatin + Alpelisib; first compound 2.53 µM) | relative viability (Carboplatin + Alpelisib; first compound 8 µM) | relative viability (GSK126 + Tozasertib; first compound 0.08 µM) | relative viability (GSK126 + Tozasertib; first compound 0.253 µM) | relative viability (GSK126 + Tozasertib; first compound 0.8 µM) | relative viability (GSK126 + Tozasertib; first compound 2.53 µM) | relative viability (GSK126 + Tozasertib; first compound 8 µM) | relative viability (MLN4924 + Navitoclax; first compound 0.04 µM) | relative viability (MLN4924 + Navitoclax; first compound 0.1265 µM) | relative viability (MLN4924 + Navitoclax; first compound 0.4 µM) | relative viability (MLN4924 + Navitoclax; first compound 1.265 µM) | relative viability (MLN4924 + Navitoclax; first compound 4 µM) | relative viability (MLN4924 + AZD7762; first compound 0.04 µM) | relative viability (MLN4924 + AZD7762; first compound 0.1265 µM) | relative viability (MLN4924 + AZD7762; first compound 0.4 µM) | relative viability (MLN4924 + AZD7762; first compound 1.265 µM) | relative viability (MLN4924 + AZD7762; first compound 4 µM) |
| --- | --- | --- | --- | --- | --- | --- | --- | --- | --- | --- | --- | --- | --- | --- | --- | --- | --- | --- | --- | --- |
| HCC-366 | 0.476 | 0.552 | 0.344 | 0.294 | 0.314 | 0.193 | 0.117 | 0.123 | 0.0783 | 0.0929 | 1.06 | 1.09 | 0.353 | 0.241 | 0.0154 | 0.312 | 0.56 | 0.526 | 0.297 | 0.0472 |
| NCI-H838 | 1.09 | 1.07 | 0.953 | 0.995 | 0.979 | 0.293 | 0.269 | 0.255 | 0.261 | 0.242 | 0.831 | 0.307 | 0.211 | 0.16 | 0.196 | 0.916 | 0.82 | 0.737 | 0.589 | 0.618 |
| HCC-78 | 0.291 | 0.391 | 0.317 | 0.285 | 0.33 | 0.527 | 0.54 | 0.401 | 0.386 | 0.405 | 0.91 | 0.537 | 0.767 | 0.158 | 0.117 | 0.665 | 0.754 | 0.981 | 0.265 | 0.251 |
| EPLC-272H | 0.966 | 0.931 | 0.936 | 0.986 | 0.843 | 0.316 | 0.306 | 0.211 | 0.306 | 0.189 | 0.94 | 1.02 | 0.104 | 0.12 | 0.141 | 0.27 | 0.239 | 0.0814 | 0.133 | 0.106 |
| LCLC-97TM1 | 0.262 |  | 0.25 | 0.256 | 0.199 | 0.244 | 0.223 | 0.188 | 0.225 | 0.176 | 0.277 | 0.281 | 0.139 | 0.134 | 0.109 | 0.338 | 0.22 | 0.0891 | 0.0605 | 0.0696 |
| LK-2 | 1.41 | 1.23 | 0.837 | 0.961 | 1.09 | 0.209 | 0.212 | 0.175 | 0.183 | 0.189 | 0.86 | 0.639 | 0.411 | 0.195 | 0.225 | 0.329 | 0.307 | 0.309 | 0.124 | 0.155 |
| CAL-12T | 1.18 | 1.05 | 1.2 | 1.23 | 1.12 | 0.324 | 0.358 | 0.301 | 0.189 | 0.184 | 1.11 | 1.11 | 0.469 | 0.398 | 0.204 | 0.522 | 0.514 | 0.365 | 0.274 | 0.247 |
| NCI-H322M | 0.74 | 0.574 | 0.605 | 0.739 | 0.701 | 0.501 | 0.51 | 0.49 | 0.472 | 0.499 | 1.3 | 1.22 | 0.844 | 0.338 | 0.382 | 0.688 | 0.643 | 0.64 | 0.317 | 0.39 |
| NCI-H2126 | 0.777 | 0.763 | 0.795 | 0.758 | 0.713 | 1 | 0.835 | 0.871 | 0.838 | 0.812 | 0.764 | 0.742 | 0.621 | 0.386 | 0.446 | 1.02 | 1.02 | 0.767 | 0.49 | 0.369 |
| NCI-H596 | 0.475 | 0.574 | 0.458 | 0.423 | 0.445 | 0.933 | 1.03 | 0.894 | 0.89 | 0.933 | 0.969 | 0.99 | 0.62 | 0.68 | 0.28 | 1.04 | 1.22 | 1.06 | 1.15 | 1.19 |
| LU99A | 0.623 | 0.584 | 0.493 | 0.522 | 0.365 | 0.259 | 0.268 | 0.26 | 0.198 | 0.21 | 0.46 | 0.267 | 0.243 | 0.158 | 0.166 | 0.28 | 0.214 | 0.185 | 0.154 | 0.114 |
| NCI-H1666 | 1.16 | 0.909 | 0.855 | 0.773 | 0.543 | 0.667 | 0.624 | 0.557 | 0.52 | 0.49 | 0.858 | 0.503 | 0.328 | 0.213 | 0.224 | 0.726 | 0.755 | 0.614 | 0.356 | 0.362 |
